Reference: patent publication US20090220528A1, “Stimulation of Toll-Like Receptors on T Cells” (THE TRUSTEES OF THE UNIVERISTY OF PENNSYLVANIA CNETER FOR …, priority 2005, published 2009)

How the values were obtained:
Assay type in all cases: cell-based, mouse
activated CD4+ T cells [1] = assay: Effect of signaling inhibitors on TLR ligand-mediated survival; settings: for effect on poly(I:C)- or CpG DNA-enhanced activated CD4+ T cell survival: dose dependent (FIG. 4A)
Procedure: TLR ligands used in all experiments were dissolved in PBS except for PGN, which was solubilized in PBS with 0.02% ethanol. SB203580, U0126, NEMO-binding domain peptide (NBD), and NBD-C were all dissolved in DMSO and purchased from Calbiochem (La Jolla, Calif.).
Therefore, the next set of experiments were designed to assess whether MAPK p38 or ERK 1/2 activation is necessary for TLR ligand-mediated survival in activated CD4^+ T cells. The ERK1/2 activation inhibitor U0126 or the MAPK p38 inhibitor SB203580 was added to TLR ligand-treated activated CD4^+ T cells and viability was assessed.

activated CD4+ T cells [2] = assay: Survival of activated CD4+ T cells treated with TLR ligands (7-AAD/annexin exclusion)
Procedure: All CD4^+ T cell activation was conducted in complete culture medium composed of RPMI 1640 (Life Technologies, Grand Island, N.Y.), 1.5 μM 2-ME (Sigma-Aldrich, St. Louis, Mo.), 50 μg/ml gentamicin (Life Technologies), and 10% FCS (Mediatech, Washington, D.C.) at 37° C. in 5% CO2. Purified CD4^+ T cells from either BALB/c, MyD88^−/−, or MyD88^+/+ wild-type control littermates were activated on 24-well plates (Costar, Cambridge, Mass.) coated with 1.0 μg/ml CD3ε monoclonal antibody (2C11; BD Biosciences) and 1.0 μg/ml CD28 monoclonal antibody (37.51; BD Biosciences) for 16 hours. In experiments with DO11.10 mice, 1 μg/ml of pOVA, a peptide derived from chicken albumin amino acid residues […] was added to 2×10^6/ml erythrocyte-depleted splenocyte and lymph node cell pools for 16 hours. Following pOVA-induced activation, CD4^+ T cell APC complexes were disrupted with 5 mM EDTA/PBS for 10 minutes at 25° C., washed twice in PBS, and purified with magnetic beads using the MACS CD4^+ T cell isolation kit as described elsewhere herein. Purity of activated DO11.10 CD4^+ T cells exceeded 96%. As described elsewhere herein, the remainder of the contaminants by FACS analysis were CD8^+ T cells, with APCs at <0.1% by RT-PCR.
Following activation, purified CD4^+ T cells were washed twice in PBS and replated in culture medium at 10^6/ml. Cultures were left untreated or treated with either TLR ligands and/or inhibitors for indicated times and concentrations. Following incubation, CD4^+ T cells were washed twice in PBS/2% FBS and stained with CD4-allophycocyanin monoclonal antibody and 7-aminoactinomycin D (7-AAD; BD PharMingen) or annexin (BD PharMingen) and survival was assessed by exclusion of either of these two stains. For absolute live cell counts 50,000 CD45.1^+ splenocytes labeled with anti-CD45.1-PE monoclonal antibody (A20; BD PharMingen) were also added to stained CD4^+ T cell sample FACS tubes just before FACS analysis. Live CD4^+ T cell counts were calculated by taking the ratio of the number of CD4^+CD45.1^−7-ADD^− events collected to the number CD45.1^+ events collected and multiplying by 50,000. Proliferation was measured by CFSE dye dilution as previously described (Wells et al., 1997 J. Clin. Invest. 100:3173).
TLR ligands directly promote the survival of several cell types including neutrophils, DC, and B cells (Lundqvist et al., 2002, Cancer Immunol. Immunother. 51:139; Sabroe et al., 2003, J. Immunol. 170:5268; Grillot et al., 1996, J. Exp. Med. 183:381; Grillot et al., 1996, J. Exp. Med. 183:381). Since it was observed that activated CD4^+ T cells also express TLRs and signal in response to TLR ligands, the next set of experiments were designed to assess whether TLR ligands could directly enhance survival of these cells. DO11.10 CD4^+ T cells, that encode a transgenic TCR specific for a peptide derived from chicken OVA (pOVA), were activated with pOVA-pulsed APCs for 16 hours ex vivo, purified by magnetic beads to remove all non-CD4^+ T cells, and replated in unsupplemented culture medium in the absence or presence of TLR ligands. Survival was then assessed 72 hours following activation (FIG. 3A). Poly(I:C) or CpG DNA induced increases of activated CD4^+ T cell survival from 38% to 71 and 73%, respectively.

[3] = system: Foxp3+GFP+ and Foxp3-GFP- T cells; assay: Foxp3 expression (GFP reporter) and IL-6 production in Foxp3+ and Foxp3- T cells under stimulation; settings: stimulation with anti-CD3 and anti-CD28 antibodies and TGF-b, with additions (FIG. 22)
Procedure: In order to study the effect of stimulation conditions on Foxp3 expression, T cells were from mice having a reporter construct introduced into the FOXP3 locus (Betteli et al., 2006, Nature 441:235-238) by sorting cells based on the GFP-reporter construct. The reporter construct expresses both Fox3p and the fluorescent protein GFP. T cells that are Foxp3^− (i.e. GFP^−) and T cells that are Foxp3^+ (i.e. GFP^+) were isolated (FIG. 21A). Foxp3 expression was then assessed under different stimulation conditions, […]

Compound | effect on poly(I:C)- or CpG DNA-enhanced activated CD4+ T cell survival (activated CD4+ T cells [1]) | Foxp3 expression in Foxp3-GFP- cells (non-regulatory T cells) [3] | other results
C[S+]([O-])c1ccc(-c2nc(-c3ccncc3)c(-c3ccc(F)cc3)[nH]2)cc1 (stereo not shown) [SB203580] | neither U0126 or SB203580 treatment decreased | – | –
N#CC(=C(/N)Sc1ccccc1N)/C(C#N)=C(\N)Sc1ccccc1N [U0126] | neither U0126 or SB203580 treatment decreased | – | overall survival rates of TLR-treated activated CD4+ T cells (activated CD4+ T cells [1]; concentration of 10 μM): small increase
IFN-α | – | – | activated CD4+ T cell survival (activated CD4+ T cells [2]; 72 hours following activation, DO11.10 CD4+ T cells activated with pOVA-pulsed APCs, purified, untreated 38% (FIG. 3A)): 67%
IL-6: cytokine added to the stimulation conditions | – | blocked the induction of Foxp3 | –
TGF-b | – | promoted Foxp3 expression | –
poly(C) | – | – | effect on activated CD4+ T cell survival (dose response) (activated CD4+ T cells [2]; FIG. 3B, purified activated CD4+ T cells): no significant effect
